“And” between values parts separate entries of the source, which are not always exact repeats. Identical values can stand only once.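 Test compounds were applied to cells in 96-well plates for 48 hours at 5 doses. GI50 is the concentration that inhibits growth by half. TGI denotes the concentration required for complete inhibition of growth.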
What was measured:
Test in all cases: NCI-60 cell line screen, 48 h
A549 NSCLC = tested on: A549 NSCLC
CAKI-1 renal = tested on: CAKI-1 renal
KM12 colon = tested on: KM12 colon
MDA-MB-231 breast = tested on: MDA-MB-231 breast
NCI-H226 lung = tested on: NCI-H226 lung
OVCAR-3 ovarian = tested on: OVCAR-3 ovarian
SF-268 CNS = tested on: SF-268 CNS
SF-539 CNS = tested on: SF-539 CNS
SK-MEL-5 melanoma = tested on: SK-MEL-5 melanoma
SR leukemia = tested on: SR leukemia
UO-31 renal = tested on: UO-31 renal

SMILES	TGI (A549 NSCLC) [µM]	TGI (CAKI-1 renal)	TGI (KM12 colon)	TGI (MDA-MB-231 breast) [µM]	TGI (NCI-H226 lung)	TGI (OVCAR-3 ovarian)	TGI (SF-268 CNS) [µM]	TGI (SF-539 CNS)	TGI (SK-MEL-5 melanoma)	TGI (SR leukemia) [µM]	TGI (UO-31 renal)	GI50 (CAKI-1 renal) [µM]	GI50 (NCI-H226 lung) [µM]	GI50 (OVCAR-3 ovarian) [µM]	GI50 (SK-MEL-5 melanoma) [µM]	GI50 (UO-31 renal) [µM]
Cc1ccc(S[C@@](C=O)(NC(=O)OCc2ccccc2)C(F)(F)F)cc1	88.3	63.8 µM	52.8 µM	58.7	40.2 µM	> 100 µM	> 100	70.9 µM	41.4 µM	44.4	36.6 µM	–	–	–	–	–
NC1=NC2(COC(c3ccccc3)(c3ccccc3)c3ccccc3)OC(COC(c3ccccc3)(c3ccccc3)c3ccccc3)C(O)C2O1 (configuration not stated)	> 100	> 100 µM	> 100 µM	> 100	> 100 µM	> 100 µM	–	> 100 µM	> 100 µM	> 100	> 100 µM	–	–	–	–	–
Cc1cc(N(CCC#N)CCC#N)ccc1/C(N=Nc1ccccc1)=N\NC(=O)c1cc(Cl)ccc1O	> 100	> 100 µM	> 100 µM	83	> 100 µM	72.8 µM	> 100	58.3 µM	46.5 µM	79.5	41.3 µM	–	–	–	–	–
COc1cc2nc(Cl)nc(NS(=O)(=O)c3cc4ccccc4s3)c2cc1OC	> 100	> 100 µM	51.2 µM	71.7	> 100 µM	44.7 µM	> 100	> 100 µM	37.9 µM	60.6	33.3 µM	–	–	–	–	–
CC(C)(C)OC(=O)N(CCCCNC(=O)C(F)(F)F)CCCNC(=O)C(F)(F)F	> 100	> 100 µM	> 100 µM	> 100	> 100 µM	> 100 µM	> 100	> 100 µM	> 100 µM	> 100	> 100 µM	–	–	–	–	–
C[C@@H](CC(=O)OCc1ccccc1)OC1OC(COC(=O)C(C)(C)C)C(OC(=O)C(C)(C)C)C(OC(=O)C(C)(C)C)C1OC(=O)C(C)(C)C (some centres not stated)	> 100	> 100 µM	> 100 µM	> 100	> 100 µM	> 100 µM	> 100	> 100 µM	> 100 µM	> 100	> 100 µM	–	–	–	–	–
CC(N)(CC(O)(C(F)(F)Cl)C(F)(F)Cl)C(=O)O (configuration not stated)	> 10	> 10 µM	> 10 µM	> 10	> 10 µM	> 10 µM	> 10	> 10 µM	> 10 µM	> 10	> 10 µM	–	–	–	–	–
Cc1c(C)c2c(c(N)c1C#N)C(=O)N(Cc1ccc(S(N)(=O)=O)cc1)C2=O	> 100	> 100 µM	> 100 µM	73.4	> 62.9 µM	> 63.2 µM	> 86.3	> 60.1 µM	> 100 µM	> 100	> 100 µM	–	–	–	–	–
N#Cc1c(NC(=O)C(F)(F)F)sc2c3c(=O)c4ccccc4c(=O)c=3oc3ccccc3c12	> 77.6	31.4 µM	26 µM	67	21.2 µM	> 80.1 µM	61.4	32.1 µM	26.6 µM	13.5	46.4 µM	–	–	–	–	–
C[C@H]1CC[C@@]2(OC1)O[C@H]1C[C@H]3[C@@H]4CC[C@@H]5C[C@@H](OC6OC(CO)C(O)C(O)C6OC6OC(CO)C(O)C(O)C6O)CC[C@]5(C)[C@H]4CC[C@]3(C)[C@H]1[C@@H]2C (some centres not stated)	3.69	3.44 µM	4.62 µM	3.81	4.2 µM	3.88 µM	4.25	3.72 µM	3.93 µM	4.3	3.67 µM	–	–	–	–	–
COc1ccccc1C1c2cc3c(cc2OC2(OC)COC(=O)C12)OCO3 (configuration not stated)	> 100	> 100 µM	45.5 µM	> 100	> 87.5 µM	69.3 µM	83.9	33.4 µM	59.3 µM	> 28.8	65.6 µM	–	–	–	–	–
CCN(/C=C1/C(=O)C(c2ccccc2)N(c2ccccc2)C1=O)CC (configuration not stated)	> 10	> 10 µM	> 10 µM	> 10	> 10 µM	> 10 µM	> 10	> 10 µM	> 10 µM	> 10	> 10 µM	–	–	–	–	–
COc1ccc2nc3c(c(N)c2c1)C1CCC3C1(C)C (configuration not stated)	> 100	> 100 µM	> 100 µM	68.3	72 µM	> 100 µM	> 100	> 100 µM	25.7 µM	> 100	> 100 µM	–	–	–	–	–
CCN(CC)CCNc1ccc([N+](=O)[O-])c2nc3ccc(OC)cc3c(NCCN(CC)CC)c12	3.4	8.6 µM	3.6 µM	2.45	3.8 µM	4.95 µM	> 10	2.43 µM	2.98 µM	0.609	3.71 µM	–	–	–	–	–
COC(=O)[C@H](Cc1ccccc1)NC(=O)c1ccc(CNC(=O)/C=C/c2csc(-c3ccccc3)n2)cc1	> 72.2	> 28.7 µM	> 100 µM	57.7	> 100 µM	26.3 µM	> 100	13 µM	14.7 µM	> 21.5	27.3 µM	–	–	–	–	–
[B]C(=O)NC(CC(C)C)C(=O)NCC(=O)NC1c2ccsc2C(=O)C1O (configuration not stated) (tested in a mixture with another compound)	> 100	> 100 µM	> 100 µM	> 100	> 100 µM	> 100 µM	> 100	> 100 µM	> 100 µM	> 100	> 100 µM	–	–	–	–	–
CCOC(=O)c1c2c(n(-c3ccc(C)cc3)c1C)-c1ccccc1C(=O)C2(C(=O)OCC)C(=O)OCC	> 100	> 100 µM	> 100 µM	> 100	> 94.7 µM	69.2 µM	> 91.9	> 71.9 µM	50.4 µM	> 4.64	> 100 µM	–	–	–	–	–
COC(=O)c1c(C)cccc1/C=C1\Cc2ccc(C)c(C)c2C1=O	> 100	> 100 µM	> 100 µM	> 100	> 100 µM	> 100 µM	> 100	> 100 µM	> 100 µM	> 100	> 100 µM	–	–	–	–	–
COC(=O)[C@@H]1[C@@H]2NC(=S)N[C@@]1(C)Oc1ccccc12	–	> 100 µM	> 100 µM	> 100	> 100 µM	> 100 µM	> 100	> 100 µM	> 100 µM	> 100	> 100 µM	–	–	–	–	–

SMILES	TGI (A549 NSCLC) [µM]	TGI (CAKI-1 renal)	TGI (KM12 colon)	TGI (MDA-MB-231 breast) [µM]	TGI (NCI-H226 lung)	TGI (OVCAR-3 ovarian)	TGI (SF-268 CNS) [µM]	TGI (SF-539 CNS)	TGI (SK-MEL-5 melanoma)	TGI (SR leukemia) [µM]	TGI (UO-31 renal)	GI50 (CAKI-1 renal) [µM]	GI50 (NCI-H226 lung) [µM]	GI50 (OVCAR-3 ovarian) [µM]	GI50 (SK-MEL-5 melanoma) [µM]	GI50 (UO-31 renal) [µM]
CN(NC1=NCCO1)c1ccc2ccccc2c1	> 100	> 100 µM	> 100 µM	> 100	> 100 µM	72.7 µM	> 100	82.6 µM	93.3 µM	> 100	> 100 µM	–	–	–	–	–
O=C(NCCN(CCNC(=O)c1cccc(O)c1O)CCNC(=O)c1cccc(O)c1O)c1cccc(O)c1O	> 100	> 100 µM	> 100 µM	> 100	85.6 µM	> 40.2 µM	> 100	> 100 µM	> 55.8 µM	> 34.2	> 100 µM	–	–	–	–	–
COC1(OC)CCc2c(sc3ncnc(Nc4cccc(Br)c4)c23)C1	> 100	> 100 µM	> 100 µM	> 100	> 100 µM	> 100 µM	> 100	> 100 µM	> 100 µM	> 100	> 100 µM	–	–	–	–	–
O=[N+]([O-])c1ccc(/C=N/Nc2nc3ccccc3[nH]2)o1	30.4	28.7 µM	24.1 µM	70.9	55.5 µM	28.1 µM	67.6	13.8 µM	14.3 µM	23.6	47.5 µM	–	–	–	–	–
O=c1[nH]c(N/N=C\C(O)C(O)C(O)C(O)CO)nc2ccccc12 (configuration not stated)	> 100	> 100 µM	> 100 µM	> 100	> 100 µM	> 100 µM	> 100	> 100 µM	> 100 µM	> 100	> 100 µM	–	–	–	–	–
Cc1nc2c(sc3nc4c(cc32)CCC4)c(=O)o1	> 100	> 100 µM	> 100 µM	> 100	> 100 µM	> 100 µM	> 100	> 70.8 µM	> 100 µM	> 100	> 91.1 µM	–	–	–	–	–
CCN1CCC(O)(c2ccc([N+](=O)[O-])cc2)C(C(=O)c2ccc([N+](=O)[O-])cc2)C1 (configuration not stated)	> 100	41.2 µM	32.1 µM	41.9	61.3 µM	31.5 µM	46	30.7 µM	35.7 µM	> 100	36.8 µM	–	–	–	–	–
CCOc1cnc(C(O)(c2ccccc2)c2ccccc2)o1	> 100	> 100 µM	> 100 µM	> 100	> 100 µM	> 100 µM	> 100	> 100 µM	> 100 µM	> 100	> 100 µM	–	–	–	–	–
Cc1cc(C)c(-c2no/c(=N\S(=O)(=O)c3ccc(Cl)cc3)o2)c(C)c1	> 100	> 100 µM	> 100 µM	> 100	> 100 µM	> 100 µM	> 100	> 100 µM	68 µM	55	> 100 µM	–	–	–	–	–
CCCCCCCCCCCCCCCCCCNc1ccn(C2OC(COP(=O)(O)OCC3OC(n4ccc(N)nc4=O)C(O)C3O)C(O)C2O)c(=O)n1 (configuration not stated)	> 100	> 100 µM	> 100 µM	> 100	> 100 µM	> 100 µM	> 100	> 100 µM	> 100 µM	> 100	> 100 µM	–	–	–	–	–
CC(=O)c1ccc(Nc2c3c(nc4ccccc24)CCCC3)cc1	> 95.5	> 44 µM	> 36 µM	> 100	> 100 µM	> 44.7 µM	> 100	> 100 µM	> 59.2 µM	74.2	> 67.1 µM	–	–	–	–	–
COC(=O)/C=C/c1ccc(OP(=O)(O)O)c(OC)c1	> 100	> 100 µM	> 100 µM	> 100	> 100 µM	> 100 µM	> 100	> 100 µM	> 100 µM	> 100	> 100 µM	–	–	–	–	–
Cc1ccc(S(=O)(=O)N(CC(O)COc2ccccc2)c2c(F)cccc2F)cc1 (configuration not stated)	40.1	33.8 µM	56.3 µM	43.8	71.1 µM	30.3 µM	37.4	33 µM	27.2 µM	61.4	38.7 µM	–	–	–	–	–
CCOC(=O)c1cn(CC)c(=O)n2c1nc1ccccc12	> 100	> 100 µM	> 100 µM	> 100	> 100 µM	> 100 µM	–	> 100 µM	> 100 µM	> 100	10.2 µM	–	–	–	–	–
CSc1nncc(-c2cc3c(c(SC)n2)CCCC3)n1	> 100	> 100 µM	> 100 µM	> 100	> 100 µM	> 100 µM	> 100	> 100 µM	> 100 µM	> 100	> 100 µM	–	–	–	–	–
NCCOc1cccc(C2(N3CCCCC3)CCCCC2)c1	> 100	> 100 µM	> 100 µM	46.3	> 100 µM	> 100 µM	86.7	32.3 µM	30.1 µM	34.8	28.2 µM	–	–	–	–	–
CCN(CC)CCNc1ccc2ncn3c4ccc(O)cc4c(=O)c1c23	7	2.08 µM	10.6 µM	14.1	1.33 µM	13.6 µM	13.6	16.9 µM	10.4 µM	2.27	6.94 µM	–	–	–	–	–
O=[N+]([O-])c1cccc2nc3ccccc3c(NCCCCCNc3c4ccccc4nc4cccc([N+](=O)[O-])c34)c12	–	0.278 µM and 0.0712 µM	0.249 µM and 0.029 µM	0.0927	0.562 µM and 1.94 µM	0.262 µM and 0.054 µM	–	0.135 µM and 0.0297 µM	0.255 µM and 0.149 µM	0.0202	0.406 µM and 0.0604 µM	0.0199	0.0249	0.0135	0.018	0.0192
Cc1nc2sc3cccc(Cl)c3n2c(=O)c1N=Nc1ccc(Cl)cc1	> 100	> 100 µM	> 100 µM	> 100	> 100 µM	> 100 µM	> 100	> 100 µM	> 100 µM	> 100	–	–	–	–	–	–

— PubChem BioAssay (NCI)
